Measured values taken from patent EP4043466B1, “PRC2 INHIBITORS” (Mirati Therapeutics, Inc., priority 2018, dated 2019).

How the values were obtained:
Karpas 422 cells = test: Karpas 422 cell viability, CTG (Cell Titre Glo) assay; assay type: cell-based, human; conditions: Inhibition of proliferation of Karpas 422 cells (EZH2 Y641N), viability measured Day 4, Day 7 or Day 11, time point of the tabulated values not stated
How it was run: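 Karpas 422 cells (EZH2 Y641N, DLBCL) plated at 1000 cells/well in RPMI with 20% FBS, exposed to compound 10µM down to 1.5nM in 3-fold steps at 37 °C. Viability by CellTiter-Glo on Days 4, 7 and 11; Day 11 plates re-fed with fresh medium and compound on Day 7. IC50 per time point.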

[1] = test system: PRC2-mediated histone H3 methylation; test: Tri-Methyl Histone H3 (Lys 27) Sandwich ELISA in Pfeiffer cells: inhibition of PRC2-mediated histone H3 methylation; assay type: cell-based, human; conditions: Inhibition of EZH2-mediated histone H3 trimethylation, Pfeiffer cells (EZH2 A677G), 96 hours incubation
Excerpt: The Pfeiffer cell line was established from a […] from a patient having metastatic diffuse large B-cell lymphoma (DLBCL). This cell line expresses a mutant form of the EZH2 enzyme (A677G) that results in enhanced EZH2 activity leading to increased methylation of histone H3 Lys27. Increased trimethylation of histone H3 Lys27 is believed to be implicated in tumorgenesis and poor clinical prognosis in lymphomas (McCabe et al., (2012) Nature 492:108-112).
Inhibition of PRC2-mediated histone H3 methylation by compounds of Formula (I) was measured by ELISA using a Tri-Methyl Histone H3 (Lys 27) Sandwich ELISA Kit (Cell Signaling Tech #7866C) in accordance with the manufacturer's instructions. Briefly, Pfeiffer cells were cultured in RPMI medium supplemented with 10% fetal bovine serum and 1% penicillin and 1% streptomycin in 96 well culture plates at 37°C to a density of 8000 cells/90µl/well and the cells were harvested. A series of 3-fold serial dilutions of each test compound of Formula (I) were prepared in RPMI medium and added to the cells at final concentrations ranging from 1µM to 0.15 nM. The plates were incubated at 37°C for 96 hours.
After incubation, the cells were pelleted by centrifugation in a pre-cooled 4°C rotor at 1, 100 rpm for 10 min and the supernatant was removed by aspiration. The cell pellet was resuspended in 55µl of Lysis Buffer (0.4M HCl) and incubated on ice with periodic shaking for 30 minutes. The lysed cells were subjected to centrifugation at 4, 200 rpm for 10 min at 4°C and the supernatant containing acid-soluble proteins was collected and the remainder discarded. The acid-soluble proteins were brought to a neutral pH by the addition of 20 µl of Neutralization Buffer (1 M Sodium phosphate, dibasic (pH 12.5), 2.5 mM DTT and 1 mM PMSF) and the neutralized lysates were analyzed by ELISA.
A 65 µl aliquot of each cell lysate was added to a well of a microwell strip, the microwells were sealed using tape and incubated either at 37°C for two hours or at 4°C overnight. After incubation, the tape was removed at the microwells were washed four times using 200 µl of 1X Wash Buffer. To each washed microwell, a 100 µl aliquot of an antitrimethyl histone H3 Lys27 Detection Antibody solution was added and the microwells were incubated at 37°C for one hour. The Detection Antibody solution was removed by aspiration and the wells were washed four times each using 200 µl of 1X Wash Buffer.
A 100 µl aliquot of an HRP-linked secondary antibody was added to each well, the wells were sealed with tape and incubated at 37°C for 30 min. The HRP-linked secondary antibody solution was removed by aspiration and the wells were washed four times using 200 µl of 1X Wash Buffer. A 100 µl aliquot of a TMB substrate was added to each well, the wells were sealed with tape and incubated at 37°C for 10 min or 25°C for 30 min. The reaction was stopped by the addition of 100 µl aliquot of a STOP solution and the plate was shaken briefly. The degree of histone H3 trimethylation was determined using a spectrophotometric readout by measuring the absorbance at 450 nm and then calculating the amount of trimethylated histone H3. A = ≤100 nM; B = >100 nM - ≤500 nM; C = >500 nM and N.D. = not determined.

[2] = molecular target: purified human, His-tagged PRC2 complex (Homo sapiens, UniProt O75530+Q15910); test: Hot Spot HMT assay: inhibition of PRC2 enzymatic activity (transfer of tritiated methyl from SAM to core histone, filter binding); assay type: biochemical; conditions: Inhibition of PRC2-mediated enzymatic activity; 10 nM PRC2 complex, 0.05 mg/ml core histone H3, 1 uM 3H-SAM, 1 hr at 30°C
How it was run: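 Five-subunit complex (His-EZH2, Flag-EED, His-SUZ12, His-AEBP2, His-RbAp48) at 10 nM with 0.05 mg/ml core histone H3, pH 8 Tris buffer, 1% DMSO; 20 min compound pre-incubation at 30°C. Started with 1 uM [3H]-SAM, 1 hr at 30°C; tritiated H3 counted by scintillation. Compounds diluted from 1.0 µM top concentration.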

purified human, His-tagged PRC2 complex, sequence (Q15910 whole entry): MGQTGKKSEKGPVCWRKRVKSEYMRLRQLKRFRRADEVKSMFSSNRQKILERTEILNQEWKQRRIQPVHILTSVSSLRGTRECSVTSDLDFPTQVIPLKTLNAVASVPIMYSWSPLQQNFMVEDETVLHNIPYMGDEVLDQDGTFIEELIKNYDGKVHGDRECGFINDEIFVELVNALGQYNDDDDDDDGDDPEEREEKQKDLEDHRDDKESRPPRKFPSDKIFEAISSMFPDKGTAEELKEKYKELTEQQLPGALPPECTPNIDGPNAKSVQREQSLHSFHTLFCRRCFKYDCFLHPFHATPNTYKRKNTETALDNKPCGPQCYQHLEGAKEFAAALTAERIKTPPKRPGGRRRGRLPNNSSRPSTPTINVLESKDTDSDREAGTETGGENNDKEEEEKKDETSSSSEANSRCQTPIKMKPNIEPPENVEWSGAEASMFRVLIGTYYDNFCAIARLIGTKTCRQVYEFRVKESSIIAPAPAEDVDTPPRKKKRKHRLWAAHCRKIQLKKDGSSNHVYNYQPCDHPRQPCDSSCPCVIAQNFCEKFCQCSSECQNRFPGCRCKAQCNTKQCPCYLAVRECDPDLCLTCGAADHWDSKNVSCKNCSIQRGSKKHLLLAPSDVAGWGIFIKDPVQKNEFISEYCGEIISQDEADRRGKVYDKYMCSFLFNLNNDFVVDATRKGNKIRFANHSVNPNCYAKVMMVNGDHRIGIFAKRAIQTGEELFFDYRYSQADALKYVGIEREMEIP
purified human, His-tagged PRC2 complex, sequence (O75530 whole entry): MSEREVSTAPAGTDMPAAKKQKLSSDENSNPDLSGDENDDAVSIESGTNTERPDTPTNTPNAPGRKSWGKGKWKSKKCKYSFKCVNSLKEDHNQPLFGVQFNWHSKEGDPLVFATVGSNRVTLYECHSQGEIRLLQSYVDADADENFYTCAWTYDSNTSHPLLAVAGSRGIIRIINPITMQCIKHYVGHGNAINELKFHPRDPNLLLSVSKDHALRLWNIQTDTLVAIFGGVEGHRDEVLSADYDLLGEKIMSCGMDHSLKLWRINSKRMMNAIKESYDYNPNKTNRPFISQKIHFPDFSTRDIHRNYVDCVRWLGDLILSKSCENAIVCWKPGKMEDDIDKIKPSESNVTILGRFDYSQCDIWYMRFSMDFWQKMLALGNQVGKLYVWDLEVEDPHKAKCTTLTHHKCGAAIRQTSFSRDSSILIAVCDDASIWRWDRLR
purified human, His-tagged PRC2 complex, sequence (Q15022 whole entry partner): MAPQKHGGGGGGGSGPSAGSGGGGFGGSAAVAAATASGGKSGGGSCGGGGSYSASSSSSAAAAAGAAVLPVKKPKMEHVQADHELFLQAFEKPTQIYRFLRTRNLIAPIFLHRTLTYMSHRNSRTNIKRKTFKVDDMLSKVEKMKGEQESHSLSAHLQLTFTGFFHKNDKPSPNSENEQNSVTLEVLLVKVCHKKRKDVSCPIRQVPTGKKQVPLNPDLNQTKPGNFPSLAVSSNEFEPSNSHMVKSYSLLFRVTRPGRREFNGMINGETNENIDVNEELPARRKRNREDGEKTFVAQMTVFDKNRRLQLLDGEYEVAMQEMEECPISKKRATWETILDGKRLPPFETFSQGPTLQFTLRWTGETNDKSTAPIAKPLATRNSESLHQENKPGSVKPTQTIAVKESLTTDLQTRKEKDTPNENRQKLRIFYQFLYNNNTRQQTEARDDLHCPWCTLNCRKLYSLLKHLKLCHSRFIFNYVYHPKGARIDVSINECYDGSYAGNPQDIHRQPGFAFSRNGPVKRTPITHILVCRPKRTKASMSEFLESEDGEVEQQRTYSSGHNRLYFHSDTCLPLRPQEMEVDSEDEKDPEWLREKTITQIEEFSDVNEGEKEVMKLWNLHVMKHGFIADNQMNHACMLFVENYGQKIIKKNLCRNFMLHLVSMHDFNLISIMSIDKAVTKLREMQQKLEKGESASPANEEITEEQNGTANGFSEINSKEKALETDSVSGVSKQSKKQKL
purified human, His-tagged PRC2 complex, sequence (Q6ZN18 whole entry partner): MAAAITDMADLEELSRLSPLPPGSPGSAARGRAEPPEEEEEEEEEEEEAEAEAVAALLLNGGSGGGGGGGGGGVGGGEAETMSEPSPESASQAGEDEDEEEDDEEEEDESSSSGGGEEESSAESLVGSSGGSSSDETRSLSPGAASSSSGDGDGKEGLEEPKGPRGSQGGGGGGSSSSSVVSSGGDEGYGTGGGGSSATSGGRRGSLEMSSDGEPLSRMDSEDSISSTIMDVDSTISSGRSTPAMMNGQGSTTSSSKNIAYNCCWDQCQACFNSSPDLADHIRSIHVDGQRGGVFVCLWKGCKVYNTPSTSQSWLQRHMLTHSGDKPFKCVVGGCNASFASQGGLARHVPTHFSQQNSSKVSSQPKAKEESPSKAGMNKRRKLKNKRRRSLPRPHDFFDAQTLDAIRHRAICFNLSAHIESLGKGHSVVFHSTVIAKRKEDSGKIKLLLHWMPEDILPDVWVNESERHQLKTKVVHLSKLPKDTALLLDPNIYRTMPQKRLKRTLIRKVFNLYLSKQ
purified human, His-tagged PRC2 complex, sequence (Q09028 whole entry partner): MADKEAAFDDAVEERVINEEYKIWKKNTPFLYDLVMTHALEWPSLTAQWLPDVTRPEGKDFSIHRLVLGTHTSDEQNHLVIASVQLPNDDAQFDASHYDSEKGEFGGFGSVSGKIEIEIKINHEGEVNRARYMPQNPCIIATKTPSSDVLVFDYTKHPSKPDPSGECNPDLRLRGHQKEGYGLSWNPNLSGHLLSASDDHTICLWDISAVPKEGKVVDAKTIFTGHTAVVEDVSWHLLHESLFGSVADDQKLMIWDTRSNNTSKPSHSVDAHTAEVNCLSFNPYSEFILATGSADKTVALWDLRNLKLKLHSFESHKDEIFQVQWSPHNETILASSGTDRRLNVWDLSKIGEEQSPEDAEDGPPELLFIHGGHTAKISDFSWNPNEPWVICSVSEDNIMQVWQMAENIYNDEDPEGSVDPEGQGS

Row | SMILES | IC50 (Karpas 422 cells; Homo sapiens) | IC50 ([1]; Homo sapiens) | IC50 [2] | IC50 (Karpas 422 cells) | IC50 [1]
1 | Cc1cc(C2CCCN2)ccc1-c1cnc(NCc2c(F)ccc3c2CCO3)n2cc(C#N)nc12 (single isomer, unassigned) [Example 214, 5-(((5-fluoro-2,3-dihydrobenzofuran-4-yl)methyl)amino)-8-(2-methyl-4-(pyrrolidin-2-yl)phenyl)imidazo[1,2-c]pyrimidine-2-carbonitrile] | – | – | < 100 nM | ≤ 250 nM | 100 to 500 nM
2 | Cc1ccc(-c2cnc(NCc3c(F)ccc4c3CCO4)n3cc(C#N)nc23)c(C)n1 [Example 67, 8-(2,6-dimethylpyridin-3-yl)-5-(((5-fluoro-2,3-dihydrobenzofuran-4-yl)methyl)amino)imidazo[1,2-c]pyrimidine-2-carbonitrile] | ≤ 250 nM | ≤ 100 nM | < 100 nM | – | –
3 | Cc1ncccc1-c1cnc(NCc2c(F)ccc3c2CCO3)n2cc(C(N)=O)nc12 [Example 137, 5-(((5-fluoro-2,3-dihydrobenzofuran-4-yl)methyl)amino)-8-(2-methylpyridin-3-yl)imidazo[1,2-c]pyrimidine-2-carboxamide] | ≤ 250 nM | 100 to 500 nM | < 100 nM | – | –
4 | N#Cc1cn2c(NCc3c(F)ccc4c3CCO4)ncc(-c3ccccc3C#N)c2n1 [Example 187, 8-(2-cyanophenyl)-5-(((5-fluoro-2,3-dihydrobenzofuran-4-yl)methyl)amino)imidazo[1,2-c]pyrimidine-2-carbonitrile] | 250 to 500 nM | 100 to 500 nM | < 100 nM | – | –
5 | Cc1nc(-c2cnc(NCc3c(F)ccc4c3CCO4)n3cc(C#N)nc23)c(C)s1 [Example 145, 8-(2,5-dimethylthiazol-4-yl)-5-(((5-fluoro-2,3-dihydrobenzofuran-4-yl)methyl)amino)imidazo[1,2-c]pyrimidine-2-carbonitrile] | ≤ 250 nM | 100 to 500 nM | 100 to 500 nM | – | –
6 | N#Cc1cn2c(NCc3c(F)ccc4c3CCO4)ncc(-c3ccc(CN4CCOCC4)cc3)c2n1 [Example 75, 5-(((5-fluoro-2,3-dihydrobenzofuran-4-yl)methyl)amino)-8-(4-(morpholinomethyl)phenyl)imidazo[1,2-c]pyrimidine-2-carbonitrile] | ≤ 250 nM | 100 to 500 nM | < 100 nM | – | –
7 | Cc1ncccc1-c1cnc(NCc2c(F)ccc3occc23)n2cc(C(=O)O)nc12 [Example 3, 5-(((5-fluorobenzofuran-4-yl)methyl)amino)-8-(2-methylpyridin-3-yl)imidazo[1,2-c]pyrimidine-2-carboxylic acid] | > 500 nM | > 500 nM | 100 to 500 nM | – | –
8 | CN(C)Cc1ccc(-c2cnc(NCc3c(F)ccc4c3CCO4)n3cc(C#N)nc23)cc1C#N [Example 201, 8-(3-cyano-4-((dimethylamino)methyl)phenyl)-5-(((5-fluoro-2,3-dihydrobenzofuran-4-yl)methyl)amino)imidazo[1,2-c]pyrimidine-2-carbonitrile] | ≤ 250 nM | 100 to 500 nM | < 100 nM | – | –
9 | Cc1cc(S(=O)(=O)C(F)(F)F)ccc1-c1cnc(NCc2c(F)ccc3c2CCO3)n2cc(C#N)nc12 [Example 184, 5-(((5-fluoro-2,3-dihydrobenzofuran-4-yl)methyl)amino)-8-(2-methyl-4-((trifluoromethyl)sulfonyl)phenyl)imidazo[1,2-c]pyrimidine-2-carbonitrile] | 250 to 500 nM | 100 to 500 nM | 100 to 500 nM | – | –
10 | CNCc1ccc(-c2cnc(NCc3c(F)ccc4c3CCO4)n3cc(C#N)nc23)cc1F [Example 197, 5-(((5-fluoro-2,3-dihydrobenzofuran-4-yl)methyl)amino)-8-(3-fluoro-4-((methylamino)methyl)phenyl)imidazo[1,2-c]pyrimidine-2-carbonitrile] | ≤ 250 nM | 100 to 500 nM | < 100 nM | – | –

Continued, in another order:

Row | IC50 (Karpas 422 cells; Homo sapiens) | IC50 ([1]; Homo sapiens) | IC50 [2] | SMILES | IC50 (Karpas 422 cells) | IC50 [1]
11 | ≤ 250 nM | 100 to 500 nM | < 100 nM | Cn1nc(C2CC2)cc1-c1cnc(NCc2c(F)ccc3c2CCO3)n2cc(C#N)nc12 [Example 144, 8-(3-cyclopropyl-1-methyl-1H-pyrazol-5-yl)-5-(((5-fluoro-2,3-dihydrobenzofuran-4-yl)methyl)amino)imidazo[1,2-c]pyrimidine-2-carbonitrile] | – | –
12 | ≤ 250 nM | ≤ 100 nM | < 100 nM | Cc1cc(C(=O)N(C)C)ncc1-c1cnc(NCc2c(F)ccc3c2CCO3)n2cc(C#N)nc12 [Example 76, 5-(2-cyano-5-(((5-fluoro-2,3-dihydrobenzofuran-4-yl)methyl)amino)imidazo[1,2-c]pyrimidin-8-yl)-N,N,4-trimethylpicolinamide] | – | –
13 | ≤ 250 nM | ≤ 100 nM | < 100 nM | Cc1cc(-c2cnc(NCc3c(F)ccc4c3CCO4)n3cc(C#N)nc23)n(C)n1 [Example 86, 8-(1,3-dimethyl-1H-pyrazol-5-yl)-5-(((5-fluoro-2,3-dihydrobenzofuran-4-yl)methyl)amino)imidazo[1,2-c]pyrimidine-2-carbonitrile] | – | –
14 | ≤ 250 nM | ≤ 100 nM | < 100 nM | CN(C)Cc1cc(F)c(-c2cnc(NCc3c(F)ccc4c3CCO4)n3cc(C#N)nc23)cc1F [Example 39, 8-(4-((dimethylamino)methyl)-2,5-difluorophenyl)-5-(((5-fluoro-2,3-dihydrobenzofuran-4-yl)methyl)amino)imidazo[1,2-c]pyrimidine-2-carbonitrile] | – | –
15 | ≤ 250 nM | ≤ 100 nM | < 100 nM | CN(C)CCn1nccc1-c1cnc(NCc2c(F)ccc3c2CCO3)n2cc(C#N)nc12 [Example 230, 8-(1-(2-(dimethylamino)ethyl)-1H-pyrazol-5-yl)-5-(((5-fluoro-2,3-dihydrobenzofuran-4-yl)methyl)amino)imidazo[1,2-c]pyrimidine-2-carbonitrile] | – | –
16 | ≤ 250 nM | ≤ 100 nM | < 100 nM | Cc1cc(CN(C)C)ccc1-c1cnc(NCc2c(F)ccc3c2C(O)CO3)n2cc(C#N)nc12 (stereo not drawn) [Example 207, 8-(4-((dimethylamino)methyl)-2-methylphenyl)-5-(((5-fluoro-3-hydroxy-2,3-dihydrobenzofuran-4-yl)methyl)amino)imidazo[1,2-c]pyrimidine-2-carbonitrile] | – | –
17 | ≤ 250 nM | 100 to 500 nM | < 100 nM | N#Cc1cn2c(NCc3c(F)ccc4c3CCO4)ncc(-c3cnccn3)c2n1 [Example 68, 5-(((5-fluoro-2,3-dihydrobenzofuran-4-yl)methyl)amino)-8-(pyrazin-2-yl)imidazo[1,2-c]pyrimidine-2-carbonitrile] | – | –
18 | ≤ 250 nM | 100 to 500 nM | 100 to 500 nM | Cc1nn(C[C@@H](C)O)c(C)c1-c1cnc(NCc2c(F)ccc3c2CCO3)n2cc(C#N)nc12 [Example 66, (R)-5-(((5-fluoro-2,3-dihydrobenzofuran-4-yl)methyl)amino)-8-(1-(2-hydroxypropyl)-3,5-dimethyl-1H-pyrazol-4-yl)imidazo[1,2-c]pyrimidine-2-carbonitrile] | – | –
